What was measured:
Test in all cases: relative viability (nuclei count vs DMSO), 5 days (fraction); higher = more cells survive
[1] = compound: CCn1c(-c2nonc2N)nc2cnc(Oc3cccc(NC(=O)c4ccc(OCCN5CCOCC5)cc4)c3)cc21 + C[C@@H](Oc1cc(-c2cnn(C3CCNCC3)c2)cnc1N)c1c(Cl)ccc(F)c1Cl [Crizotinib] (partner 1 µM)
Outline: (§1)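 Lung cancer cell lines were pin-tool dosed in 1536-well plates on the day after seeding, with either a lone drug or a fixed anchor-drug dose plus five library-drug doses (not always all listed) in √10 steps. Nuclei were counted on 4× images after 5 days. Relative viability is the ratio of treated-well to vehicle-well nuclei counts, with each value a median of duplicate plates.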

[2] = compound: N=C1NC(=O)/C(=C/c2ccc(O)cc2)S1 [Mirin] + C[C@@H](Oc1cc(-c2cnn(C3CCNCC3)c2)cnc1N)c1c(Cl)ccc(F)c1Cl [Crizotinib] (partner 1 µM)
Outline: as §1

[3] = compound: N=C1NC(=O)/C(=C/c2ccc(O)cc2)S1 [Mirin] + Nc1nc2[nH]cc(CCc3ccc(C(=O)N[C@@H](CCC(=O)O)C(=O)O)cc3)c2c(=O)[nH]1 [Pemetrexed] (partner 0.2 µM)
Outline: as §1

[4] = compound: N=C1NC(=O)/C(=C/c2ccc(O)cc2)S1 [Mirin] + CCNC(=O)c1noc(-c2cc(C(C)C)c(O)cc2O)c1-c1ccc(CN2CCOCC2)cc1 [Luminespib] (partner 0.01 µM)
Outline: as §1

Cell Line | relative viability ([1]; first compound 0.04 µM) | relative viability ([1]; first compound 0.1265 µM) | relative viability ([1]; first compound 0.4 µM) | relative viability ([1]; first compound 4 µM) | relative viability ([2]; first compound 0.25 µM) | relative viability ([2]; first compound 2.5 µM) | relative viability ([2]; first compound 7.906 µM) | relative viability ([2]; first compound 25 µM) | relative viability ([3]; first compound 0.25 µM) | relative viability ([3]; first compound 0.7906 µM) | relative viability ([3]; first compound 2.5 µM) | relative viability ([3]; first compound 7.906 µM) | relative viability ([3]; first compound 25 µM) | relative viability ([4]; first compound 0.25 µM) | relative viability ([4]; first compound 0.7906 µM) | relative viability ([4]; first compound 2.5 µM) | relative viability ([4]; first compound 7.906 µM) | relative viability ([4]; first compound 25 µM) | relative viability ([1]; first compound 1.265 µM) | relative viability ([2]; first compound 0.7906 µM)
ChaGo-K-1 | 1.31 | 1.04 | 0.96 | 0.633 | 0.984 | 1.12 | 1.04 | 0.866 | 0.263 | 0.252 | 0.255 | 0.259 | 0.256 | 0.555 | 0.295 | 0.705 | 0.429 | 0.306 | – | –
EKVX | 1.14 | 0.994 | 0.893 | 0.788 | 0.839 | 1.1 | 0.947 | 1.1 | 0.379 | 0.318 | 0.397 | 0.502 | 0.346 | 0.868 | 0.754 | 0.907 | 0.74 | 0.886 | 0.724 | 0.811
EMC-BAC-2 | 0.904 | 0.823 | 0.789 | 0.701 | 0.727 | 0.774 | 0.697 | 0.616 | 0.475 | 0.431 | 0.452 | 0.375 | 0.41 | 1.08 | 1.13 | 1.13 | 1.17 | 1.1 | 0.733 | 0.818
EPLC-272H | 1.24 | 1.12 | 0.83 | 0.932 | 0.83 | 0.853 | 0.671 | 0.779 | 0.371 | 0.307 | 0.309 | 0.323 | 0.192 | 0.176 | – | 0.311 | 0.198 | 0.185 | 0.871 | –
H3255 | 1.13 | 0.815 | 0.725 | 0.637 | 0.882 | 0.838 | 0.735 | 0.836 | 0.525 | 0.605 | 0.626 | 0.54 | 0.571 | 0.825 | 0.79 | 0.943 | 0.712 | 0.821 | 0.49 | 0.939
HARA | 1.15 | 1.08 | 1.1 | 0.241 | 1.06 | 1.05 | 0.995 | 1.14 | 0.235 | – | 0.236 | 0.227 | 0.293 | 0.808 | – | 0.693 | 0.773 | 0.372 | 0.335 | 1.15
HCC-15 | 0.961 | 0.746 | 0.723 | 0.772 | 0.841 | 0.888 | 0.803 | 0.802 | 0.217 | 0.233 | 0.218 | 0.196 | 0.203 | 0.353 | 0.391 | 0.289 | 0.452 | 0.274 | 0.75 | 0.866
HCC-44 | 0.784 | 1.03 | 0.83 | 0.248 | 0.817 | 0.783 | 0.795 | 1.07 | 0.604 | 0.835 | 0.677 | 0.633 | 0.694 | 0.968 | 1.19 | 0.805 | 0.939 | 1.05 | 0.411 | 0.85
HCC-827 | 0.913 | 0.903 | 0.951 | 0.803 | 0.98 | 0.973 | 0.885 | 1.07 | 0.246 | 0.258 | 0.224 | 0.254 | 0.282 | 0.673 | 0.665 | 0.724 | 0.841 | 1.03 | 0.892 | 0.961
HOP-62 | 0.972 | 0.86 | 0.951 | 0.755 | 1.05 | 0.828 | – | 0.937 | 0.36 | 0.286 | 0.316 | 0.288 | 0.361 | 0.956 | 0.987 | 0.923 | 1.05 | 1.03 | 0.931 | 0.815
LC-2-ad | 0.52 | 0.478 | 0.435 | 0.347 | 0.493 | 0.466 | – | 0.254 | 0.266 | 0.271 | 0.254 | 0.288 | 0.264 | 1.02 | 0.837 | 1.05 | 0.968 | 0.721 | – | 0.518
LCLC-97TM1 | 0.278 | 0.524 | – | 0.596 | 0.316 | 0.259 | 0.218 | 0.233 | 0.161 | 0.128 | 0.14 | 0.149 | 0.127 | 0.672 | 0.646 | 0.679 | 0.63 | 0.495 | 0.427 | 0.317
LCLC-103H | 1.08 | 1.09 | 0.962 | 0.967 | 1.1 | 1.01 | 1.17 | 1.25 | 0.441 | 0.523 | 0.487 | 0.425 | 0.435 | 0.931 | 1.06 | 0.93 | 1.05 | 1 | 1.01 | 0.978
LK-2 | 0.222 | 0.236 | 0.264 | 0.176 | 0.241 | 0.238 | 0.24 | 0.199 | 0.129 | – | 0.257 | 0.164 | 0.257 | 0.148 | – | 0.19 | 0.153 | 0.133 | 0.242 | –
LOU-NH91 | 0.756 | 0.534 | 0.637 | 0.497 | 0.759 | 0.718 | 0.77 | 0.902 | 0.375 | 0.389 | 0.357 | 0.399 | 0.376 | 0.304 | 0.301 | 0.351 | 0.322 | 0.295 | 0.488 | –
